According to EPA's ToxValDB 9.5 (doi:10.2903/j.efsa.2006.57r):
Values after ≈ are worked out from the molar mass of the structure shown.

Key:
[1] = tested on: Cucumis sativus; settings: not reported; other
[2] = tested on: Pimephales promelas; settings: chronic/long-term; duration: 35 days; other
[3] = tested on: Rattus norvegicus; settings: oral
[4] = tested on: Ictalurus punctatus; settings: acute; duration: 96 hours; mortality
[5] = tested on: Tagia sp.; settings: acute; mortality
[6] = tested on: Colinus virginianus; settings: reproduction developmental; F
[7] = tested on: Oryctolagus sp.; settings: reproduction developmental
[8] = tested on: Daphnia magna; settings: chronic/long-term; duration: 21 days; mortality
[9] = tested on: Apis mellifera; settings: acute, mortality
[10] = tested on: Canidae; settings: chronic; duration: 1 years; oral; Dog Other; body weight
[11] = tested on: Anas platyrhynchos; settings: acute; oral; unspecified; mortality
[12] = tested on: Aphidius rhopalosiphi; test: LR50; higher = less toxic; settings: not reported; mortality
[13] = tested on: Typhlodromus pyri; test: LR50; higher = less toxic; settings: not reported; mortality

CCOC(=O)C1CC(=O)C(=C(O)C2CC2)C(=O)C1 (stereo not given) [Trinexapac-ethyl]
NOEC [1]: > 24 g/ha
NOEC [2]: 0.41 mg/L
LD50 ([3]; acute, mortality): 4210 mg/kg
NOAEL ([3]; subchronic, duration: 90 days, body weight): ≤ 34 mg/kg-day
LC50 [4]: 35 µg/mL (≈ 139 µM)
LC50 [5]: > 250 mg/kg
NOEC [6]: ≥ 53.3 mg/kg-day
NOAEL [7]: 60 mg/kg-day
NOEC [8]: 2.4 mg/L
LD50 ([9]; dermal): 69.6 µg/piece
LD50 ([9]; oral, unspecified): > 108 µg/piece
NOAEL [10]: 32 mg/kg-day
LD50 [11]: > 2000 mg/kg
LR50 [12]: 114 g/ha
LR50 [13]: 197 g/ha
